Reference: PubChem BioAssay AID248 (DTP/NCI, 2004)
“And” between values parts separate entries of the source, which are not always exact repeats. Equal entries are not always repeated. Inconclusive results and toxic doses are left out. Rule as the data show it: active = T/C of 150% or more; inactive = T/C below 125%.

Tested on: L1210 leukemia ip in BDF1 mice, survival T/C
Assay: NCI In Vivo Anticancer Drug Screen. Data for tumor model L1210 Leukemia (intraperitoneal) in B6D2F1 (BDF1) mice
Settings: endpoint: mean survival time, higher = longer survival
How it was run: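 Each compound was tested against a transplantable tumor grown in mice. The endpoint was survival, with treated animals benchmarked against vehicle controls as a simple ratio.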

[1] = dose: 100.0 mg/kg/injection, schedule: Q01DX001 (ip), vehicle: carboxymethylcellulose (CMC)
[2] = dose: 200.0 mg/kg/injection, schedule: Q01DX001 (ip), vehicle: carboxymethylcellulose (CMC)
[3] = dose: 400.0 mg/kg/injection, schedule: Q01DX001 (ip), vehicle: carboxymethylcellulose (CMC)
[4] = dose: 100.0 mg/kg/injection, schedule: Q01DX001 (ip), vehicle: saline
[5] = dose: 200.0 mg/kg/injection, schedule: Q01DX001 (ip), vehicle: saline
[6] = dose: 400.0 mg/kg/injection, schedule: Q01DX001 (ip), vehicle: saline
[7] = dose: 100.0 mg/kg/injection, schedule: Q04DX003 (ip), vehicle: saline with Tween-80
[8] = dose: 200.0 mg/kg/injection, schedule: Q04DX003 (ip), vehicle: saline with Tween-80
[9] = dose: 400.0 mg/kg/injection, schedule: Q04DX003 (ip), vehicle: saline with Tween-80
[10] = dose: 100.0 mg/kg/injection, schedule: Q04DX003 (ip), vehicle: Klucel (hydroxypropylcellulose) (HPC)
[11] = dose: 200.0 mg/kg/injection, schedule: Q04DX003 (ip), vehicle: Klucel (hydroxypropylcellulose) (HPC)
[12] = dose: 400.0 mg/kg/injection, schedule: Q04DX003 (ip), vehicle: Klucel (hydroxypropylcellulose) (HPC)
[13] = dose: 100.0 mg/kg/injection, schedule: Q01DX001 (ip), vehicle: other
[14] = dose: 200.0 mg/kg/injection, schedule: Q01DX001 (ip), vehicle: other
[15] = dose: 400.0 mg/kg/injection, schedule: Q01DX001 (ip), vehicle: other
[16] = dose: 25.0 mg/kg/injection, schedule: Q01DX009 (ip), vehicle: saline with Tween-80
[17] = dose: 50.0 mg/kg/injection, schedule: Q04DX003 (ip), vehicle: saline with Tween-80
[18] = dose: 100.0 mg/kg/injection, schedule: Q01DX009 (ip), vehicle: saline with Tween-80
[19] = dose: 200.0 mg/kg/injection, schedule: Q01DX009 (ip), vehicle: saline with Tween-80
[20] = dose: 400.0 mg/kg/injection, schedule: Q01DX009 (ip), vehicle: saline with Tween-80
[21] = dose: 100.0 mg/kg/injection, schedule: Q01DX001 (ip), vehicle: Klucel (hydroxypropylcellulose) (HPC)
[22] = dose: 200.0 mg/kg/injection, schedule: Q01DX001 (ip), vehicle: Klucel (hydroxypropylcellulose) (HPC)
[23] = dose: 400.0 mg/kg/injection, schedule: Q01DX001 (ip), vehicle: Klucel (hydroxypropylcellulose) (HPC)
[24] = dose: 100.0 mg/kg/injection, schedule: Q01DX001 (ip), vehicle: saline with Tween-80

Measured: T/C

Cc1cc2ccccn2c1C(=O)c1ccccc1
inactive: [1] 107 % of control | dose: 100.0 mg/kg/injection, schedule: Q01DX009 (ip), vehicle: carboxymethylcellulose (CMC) 106 % of control | dose: 100.0 mg/kg/injection, schedule: Q04DX002 (ip), vehicle: carboxymethylcellulose (CMC) 98 % of control and 102 % of control | dose: 100.0 mg/kg/injection, schedule: Q04DX003 (ip), vehicle: carboxymethylcellulose (CMC) 102 % of control | [2] 98 % of control | dose: 200.0 mg/kg/injection, schedule: Q01DX009 (ip), vehicle: carboxymethylcellulose (CMC) 96 % of control and 106 % of control | dose: 200.0 mg/kg/injection, schedule: Q04DX002 (ip), vehicle: carboxymethylcellulose (CMC) 94 % of control and 107 % of control | dose: 200.0 mg/kg/injection, schedule: Q04DX003 (ip), vehicle: carboxymethylcellulose (CMC) 102 % of control | [3] 98 % of control | dose: 400.0 mg/kg/injection, schedule: Q01DX009 (ip), vehicle: carboxymethylcellulose (CMC) 95 % of control and 102 % of control | dose: 400.0 mg/kg/injection, schedule: Q04DX002 (ip), vehicle: carboxymethylcellulose (CMC) 93 % of control and 102 % of control | dose: 400.0 mg/kg/injection, schedule: Q04DX003 (ip), vehicle: carboxymethylcellulose (CMC) 102 % of control

CC1CCC2(CC1)OCC(CCl)O2 (centres undefined)
inactive: dose: 222.0 mg/kg/injection, schedule: Q01DX Z (ip), vehicle: saline 107 % of control | dose: 333.0 mg/kg/injection, schedule: Q01DX Z (ip), vehicle: saline 110 % of control | dose: 500.0 mg/kg/injection, schedule: Q01DX Z (ip), vehicle: saline 113 % of control

CCSC(C)(C)C(C)(C#N)NNC(C)(C#N)C(C)(C)SCC (centres undefined)
inactive: [4] 101 % of control | [5] 95 % of control | [6] 93 % of control

CC(=O)/C=C(\C)OC1CCCCC1
inactive: [7] 98 % of control | [8] 95 % of control | [9] 91 % of control

COc1cccc(CNc2ccc(SC)cc2)c1OC
inactive: dose: 100.0 mg/kg/injection, schedule: Q01DX009 (ip), vehicle: Klucel (hydroxypropylcellulose) (HPC) 97 % of control | [10] 94 % of control | dose: 200.0 mg/kg/injection, schedule: Q01DX009 (ip), vehicle: Klucel (hydroxypropylcellulose) (HPC) 105 % of control | [11] 91 % of control | dose: 400.0 mg/kg/injection, schedule: Q01DX009 (ip), vehicle: Klucel (hydroxypropylcellulose) (HPC) 94 % of control | [12] 91 % of control

NN=C1C(Cl)=C(Cl)C(Cl)=C1Cl
inactive: [10] 93 % of control | [11] 93 % of control | [12] 98 % of control

Cn1c(=O)c2c(nc(OCC3CCCCC3)n2C)n(C)c1=O
inactive: dose: 50.0 mg/kg/injection, schedule: Q01DX001 (ip), vehicle: other 94 % of control | [13] 100 % of control | [14] 94 % of control | [15] 92 % of control

C#CCCCCCC#[C][Hg][C]#CCCCCCC#C.C#CCCCCCC#[C][Hg][C]#CCCCCCC#C
inactive: dose: 75.0 mg/kg/injection, schedule: Q01DX001 (ip), vehicle: saline 90 % of control | dose: 150.0 mg/kg/injection, schedule: Q01DX001 (ip), vehicle: saline 92 % of control | dose: 300.0 mg/kg/injection, schedule: Q01DX001 (ip), vehicle: saline 95 % of control

CC(=O)Nc1ccc2c(c1)C[N+](C)(C1CCCCC1)CO2 (centres undefined)
inactive: [16] 101 % of control | dose: 25.0 mg/kg/injection, schedule: Q01DX015 (ip), vehicle: carboxymethylcellulose (CMC) 103 % of control | dose: 50.0 mg/kg/injection, schedule: Q01DX009 (ip), vehicle: saline with Tween-80 95 % of control | dose: 50.0 mg/kg/injection, schedule: Q01DX015 (ip), vehicle: carboxymethylcellulose (CMC) 98 % of control | [17] 97 % of control | [1] 92 % of control | [18] 95 % of control | [7] 100 % of control | [2] 94 % of control

CC(=O)NC(C)(C)Cc1ccccc1
inactive: dose: 50.0 mg/kg/injection, schedule: Q01DX001 (ip), vehicle: carboxymethylcellulose (CMC) 89 % of control | [1] 94 % of control | [18] 111 % of control | [19] 101 % of control | [3] 94 % of control | [20] 86 % of control

S=c1[nH]n(-c2ccccc2)c(=S)s1
inactive: [4] 100 % of control | [5] 105 % of control

CN(O)C(=O)OC(C)(C)C
inactive: [13] 108 % of control | [14] 108 % of control | [15] 114 % of control

O=C(O)c1ccccc1[N+](=O)[O-]
inactive: [21] 99 % of control | [22] 97 % of control | [23] 96 % of control

CCCCCCCCCC(=O)CCCCCCC
inactive: dose: 25.0 mg/kg/injection, schedule: Q01DX009 (ip), vehicle: other 105 % of control | dose: 50.0 mg/kg/injection, schedule: Q01DX009 (ip), vehicle: other 102 % of control | dose: 100.0 mg/kg/injection, schedule: Q01DX009 (ip), vehicle: other 95 % of control and 97 % of control | dose: 400.0 mg/kg/injection, schedule: Q01DX009 (ip), vehicle: other 98 % of control

CCCCN(C)N=Nc1ccccc1C(=O)OC
inactive: [1] 107 % of control | [2] 117 % of control

CCOc1c(Cl)cc(Cl)cc1C(c1ccc(Cl)cc1S(=O)(=O)O)c1cc(Cl)cc(Cl)c1OCC
inactive: [7] 89 % of control

CN(C)c1c(Cl)cc([N+](=O)[O-])cc1Cl
inactive: [21] 97 % of control | [22] 95 % of control | [23] 94 % of control

CN(C)c1ncnc2c1cnn2C
inactive: [1] 96 % of control | [2] 110 % of control

[N-]=[N+]=NCc1nnc2ncnc(N)c2n1
inactive: [16] 88 % of control | dose: 25.0 mg/kg/injection, schedule: Q04DX003 (ip), vehicle: saline with Tween-80 94 % of control | [17] 105 % of control | [24] 95 % of control | [7] 102 % of control

Cc1ccc(-n2c(O)c(C=N)c(=O)[nH]c2=O)cc1
inactive: [18] 97 % of control | [19] 93 % of control

CCOP(=O)(Oc1ccc([N+](=O)[O-])cc1)c1cccc(Cl)c1 (centres undefined)
inactive: dose: 5.0 mg/kg/injection, schedule: Q01DX001 (ip), vehicle: saline 102 % of control | dose: 10.0 mg/kg/injection, schedule: Q01DX001 (ip), vehicle: saline 111 % of control

c1ccc2c3c(ccc2c1)-c1oncc1CC3
inactive: [4] 95 % of control | [5] 103 % of control | [6] 93 % of control

Cc1c(O)c2ccc(Cl)cc2n(C)c1=O
inactive: dose: 100.0 mg/kg/injection, schedule: Q04DX002 (ip), vehicle: saline with Tween-80 100 % of control | dose: 200.0 mg/kg/injection, schedule: Q04DX002 (ip), vehicle: saline with Tween-80 94 % of control | dose: 400.0 mg/kg/injection, schedule: Q04DX002 (ip), vehicle: saline with Tween-80 103 % of control

OC1CCC2CC12 (centres undefined)
inactive: dose: 50.0 mg/kg/injection, schedule: Q01DX001 (ip), vehicle: saline with Tween-80 98 % of control | [24] 102 % of control and 106 % of control | dose: 200.0 mg/kg/injection, schedule: Q01DX001 (ip), vehicle: saline with Tween-80 107 % of control and 95 % of control | dose: 400.0 mg/kg/injection, schedule: Q01DX001 (ip), vehicle: saline with Tween-80 93 % of control

O=[N+]([O-])c1ccc2c([N+](=O)[O-])ccc3c2c1CC3
inactive: [18] 94 % of control | [19] 90 % of control | [20] 92 % of control

COc1ccc2c(O)c(Oc3ccccc3)c(=O)oc2c1
inactive: dose: 100.0 mg/kg/injection, schedule: Q04DX003 (ip), vehicle: saline 87 % of control | dose: 200.0 mg/kg/injection, schedule: Q04DX003 (ip), vehicle: saline 97 % of control

Cc1cc(=O)[nH]c2c1CCCC2
inactive: [7] 92 % of control | [8] 97 % of control | [9] 101 % of control
